Assays:
[1] = tested on: M-NFS-60 cells; assay: cells; settings: 67 h, read-out: M-NFS-60 cell proliferation
Procedure: M-NFS-6 Cell Proliferation Assay
A serial dilution of test compound was dispensed into a 384-well black clear bottom plate (Corning, Corning, N.Y.). Two thousand five hundred cells were added per well in 50 μL complete growth medium. […] IC50 values were calculated from a series of percent inhibition values determined at a range of inhibitor concentrations using software routines as implemented in the GraphPad Prism software package.

[2] = biological target: unphosphorylated PDGFRβ kinase (uPDGFRβ, Seq. ID No. 3) (Homo sapiens, UniProt P09619); assay: biochemical
[3] = tested on: phospho-FMS in THP-1 cells; assay: cells; settings: Homo sapiens, THP-1, read-out: pFMS inhibition in THP-1 cells
Procedure: In a separate 96 well black clear bottom plate, one hundred and fifty thousand THP-1 cells were added per well in 100 μL in assay medium. Fifty microliters of diluted compound was then added to the cells. […] Lysates were prepared and used to perform the phospho-FMS ELISA as described by the manufacturer (catalog #DYC3268, R & D Systems, Minneapolis, Minn.). GraphPad Prism was used to calculate IC50 values obtained from data generated from the ELISA assay.

[4] = tested on: osteoclast precursors; assay: cells; type: cell-based; settings: read-out: Osteoclast assay
[5] = biological target: T1, unphosphorylated c-FMS kinase (uFMS, Seq. ID no. 1) (Homo sapiens, UniProt P07333); assay: biochemical
T1 sequence (P07333 538-972): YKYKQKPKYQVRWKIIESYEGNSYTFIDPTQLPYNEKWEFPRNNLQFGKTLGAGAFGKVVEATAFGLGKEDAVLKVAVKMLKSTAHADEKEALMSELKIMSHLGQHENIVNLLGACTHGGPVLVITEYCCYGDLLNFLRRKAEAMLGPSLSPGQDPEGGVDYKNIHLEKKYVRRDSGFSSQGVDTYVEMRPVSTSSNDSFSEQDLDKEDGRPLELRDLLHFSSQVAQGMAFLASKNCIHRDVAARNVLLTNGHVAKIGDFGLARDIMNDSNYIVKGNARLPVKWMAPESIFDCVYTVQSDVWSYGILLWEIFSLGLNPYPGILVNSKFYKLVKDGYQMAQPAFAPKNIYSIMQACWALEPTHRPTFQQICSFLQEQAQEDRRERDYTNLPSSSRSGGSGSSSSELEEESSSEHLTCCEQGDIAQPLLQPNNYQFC
Procedure: In this assay, the oxidation of NADH (thus the decrease at A340 nm) was continuously monitored spectrophometrically. The reaction mixture (100 μL) contained FMS (purchased from Millipore) (10 nM), polyE4Y (1 mg/mL), MgCl2 (10 mM), pyruvate kinase (4 units), lactate dehydrogenase (0.7 units), phosphoenol pyruvate (1 mM), NADH (0.28 mM) and ATP (500 μM) in 90 mM Tris buffer containing 0.2% octyl-glucoside and 1% DMSO, pH 7.5. The inhibition reaction was started by mixing serial diluted test compound with the above reaction mixture. The absorption at 340 nm was monitored continuously for 4 hours at 30° C. on Synergy 2 plate reader. The reaction rate was calculated using the 3 to 4 h time frame. Percent inhibition was obtained by comparison of reaction rate with that of a control (i.e. in the absence of test compound). IC50 values were calculated from a series of percent inhibition values determined at a range of inhibitor concentrations using software routines as implemented in the GraphPad Prism software package.

[6] = biological target: unphosphorylated c-KIT kinase (uKIT, Seq. ID no. 2) (Homo sapiens, UniProt P10721); assay: biochemical
Sequence of unphosphorylated c-KIT kinase (uKIT, Seq. ID no. 2) (P10721 with tags, fused parts or gaps): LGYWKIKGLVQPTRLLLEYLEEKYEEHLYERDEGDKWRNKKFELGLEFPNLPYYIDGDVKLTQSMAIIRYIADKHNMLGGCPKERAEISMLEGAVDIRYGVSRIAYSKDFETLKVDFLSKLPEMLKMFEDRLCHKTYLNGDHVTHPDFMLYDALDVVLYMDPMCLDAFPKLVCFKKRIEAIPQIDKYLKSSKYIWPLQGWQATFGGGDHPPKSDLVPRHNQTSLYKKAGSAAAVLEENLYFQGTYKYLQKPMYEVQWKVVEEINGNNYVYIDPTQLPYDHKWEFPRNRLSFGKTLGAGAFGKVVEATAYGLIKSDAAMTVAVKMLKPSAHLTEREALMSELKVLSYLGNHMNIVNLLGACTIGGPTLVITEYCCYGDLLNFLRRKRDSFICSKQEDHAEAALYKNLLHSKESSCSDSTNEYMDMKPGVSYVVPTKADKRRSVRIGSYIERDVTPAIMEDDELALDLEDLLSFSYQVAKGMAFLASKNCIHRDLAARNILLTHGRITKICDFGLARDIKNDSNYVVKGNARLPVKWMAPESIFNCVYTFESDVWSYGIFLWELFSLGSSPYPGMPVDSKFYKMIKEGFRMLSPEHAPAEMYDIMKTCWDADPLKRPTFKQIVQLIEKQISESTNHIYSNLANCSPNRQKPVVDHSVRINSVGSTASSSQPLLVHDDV
Procedure: uKit kinase (Seq. ID No. 2) Assay
In this assay, the oxidation of NADH (thus the decrease at A340 nm) was continuously monitored spectrophometrically. […] The inhibition reaction was started by mixing serial diluted test compound with the above reaction mixture. The absorption at 340 nm was monitored continuously for 4 hours at 30° C. on Synergy 2 plate reader (BioTech).

[7] = uPDGFRb, enzymatic assay, ATP 500 μM
[8] = uFMS, enzymatic assay, ATP 500 μM
[9] = uKIT, enzymatic assay, ATP 2000 μM

Sequence of unphosphorylated PDGFRβ kinase (uPDGFRβ, Seq. ID No. 3) (P09619 557-1106): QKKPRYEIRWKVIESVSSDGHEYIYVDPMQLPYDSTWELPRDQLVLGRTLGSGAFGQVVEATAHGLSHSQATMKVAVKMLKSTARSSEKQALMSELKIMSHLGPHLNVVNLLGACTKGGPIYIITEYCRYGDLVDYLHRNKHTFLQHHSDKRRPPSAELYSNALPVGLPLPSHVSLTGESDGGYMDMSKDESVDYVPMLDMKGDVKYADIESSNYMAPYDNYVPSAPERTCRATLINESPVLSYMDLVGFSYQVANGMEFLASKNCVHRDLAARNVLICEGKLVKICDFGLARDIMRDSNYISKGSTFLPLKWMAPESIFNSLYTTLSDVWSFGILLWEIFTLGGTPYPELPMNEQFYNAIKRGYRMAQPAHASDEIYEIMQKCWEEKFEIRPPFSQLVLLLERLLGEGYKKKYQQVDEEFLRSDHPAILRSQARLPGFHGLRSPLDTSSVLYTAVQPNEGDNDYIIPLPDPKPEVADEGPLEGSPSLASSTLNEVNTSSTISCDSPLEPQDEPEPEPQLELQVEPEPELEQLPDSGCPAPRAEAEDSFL

For Cn1cc(-c2cc(Oc3ccc(NC(=O)NC(=O)[C@H]4C[C@](C)(F)C4)nc3)ccn2)cn1 [Example 1, trans-3-fluoro-3-methyl-N-((5-((2-(1-methyl-1H-pyrazol-4-yl)pyridin-4-yl)oxy)pyridin-2-yl)carbamoyl)cyclobutanecarboxamide], the IC50 [1] was < 10 nM, the IC50 [2, 7] was 10 to 100 nM and the IC50 [3] was < 10 nM. For the same compound, the IC50 [4] was < 10 nM and the IC50 [5, 8] was < 10 nM.
With Cn1cc(-c2cc(Oc3ccc(NC(=O)NC(=O)C4CC(C)(C)C4)nc3)ccn2)cn1 [Example 2, 3,3-dimethyl-N-((5-((2-(1-methyl-1H-pyrazol-4-yl)pyridin-4-yl)oxy)pyridin-2-yl)carbamoyl)cyclobutanecarboxamide] the IC50 [1] was < 10 nM, the IC50 [2, 7] was 10 to 100 nM and the IC50 [3] was < 10 nM. The IC50 [6, 9] was < 10 nM, the IC50 [4] was < 10 nM and the IC50 [5, 8] was < 10 nM.
In the case of Cn1cc(-c2cc(Oc3ccc(NC(=O)NC(=O)CCC4(C(F)(F)F)CC4)nc3)ccn2)cn1 [Example 3, N-((5-((2-(1-methyl-1H-pyrazol-4-yl)pyridin-4-yl)oxy)pyridin-2-yl)carbamoyl)-3-(1-(trifluoromethyl)cyclopropyl)propanamide], the IC50 [1] is reported as < 10 nM, the IC50 [2, 7] is reported as < 10 nM and the IC50 [3] is reported as < 10 nM. The IC50 [6, 9] was < 10 nM, the IC50 [4] was < 10 nM and the IC50 [5, 8] was < 10 nM.
For Cn1cc(-c2cc(Oc3ccc(NC(=O)NC(=O)CC4CCOCC4)nc3)ccn2)cn1 [Example 4, N-((5-((2-(1-methyl-1H-pyrazol-4-yl)pyridin-4-yl)oxy)pyridin-2-yl)carbamoyl)-2-(tetrahydro-2H-pyran-4-yl)acetamide], the IC50 [1] was < 10 nM, the IC50 ([2]; IC50 (nM) uPDGFRβ, Table 3) was 168 nM and the IC50 [2, 7] was 100 to 1000 nM. The IC50 [3] was 10 to 100 nM, the IC50 ([6]; IC50 (nM) uKIT, Table 3) was 165 nM and the IC50 [6, 9] was 100 to 1000 nM. For the same compound, the IC50 [4] was < 10 nM, the IC50 ([5]; IC50 (nM) uFMS, Table 3) was 8 nM and the IC50 [5, 8] was < 10 nM.
Cc1nc(NC(=O)NC(=O)CCC2(C(F)(F)F)CC2)ccc1Oc1ccnc(-c2cnn(C)c2)c1 [Example 11, N-((6-methyl-5-((2-(1-methyl-1H-pyrazol-4-yl)pyridin-4-yl)oxy)pyridin-2-yl)carbamoyl)-3-(1-(trifluoromethyl)cyclopropyl)propanamide] was tested, and the IC50 [1] was < 10 nM, the IC50 [2, 7] was 10 to 100 nM and the IC50 [3] was 10 to 100 nM. For the same compound, the IC50 [6, 9] was < 10 nM, the IC50 [4] was < 10 nM and the IC50 [5, 8] was < 10 nM.
With Cc1nc(NC(=O)NC(=O)C2CCC(F)(F)CC2)ccc1Oc1ccnc(-c2cnn(C)c2)c1 [Example 12, 4,4-difluoro-N-((6-methyl-5-((2-(1-methyl-1H-pyrazol-4-yl)pyridin-4-yl)oxy)pyridin-2-yl)carbamoyl)cyclohexanecarboxamide] the IC50 [1] was < 10 nM, the IC50 [2, 7] was 100 to 1000 nM and the IC50 [3] was 10 to 100 nM. For the same compound, the IC50 [6, 9] was 10 to 100 nM, the IC50 [4] was < 10 nM and the IC50 [5, 8] was < 10 nM.
With Cc1nc(NC(=O)NC(=O)C2CC(C)(C)C2)ccc1Oc1ccnc(-c2cnn(C)c2)c1 [Example 13, 3,3-dimethyl-N-((6-methyl-5-((2-(1-methyl-1H-pyrazol-4-yl)pyridin-4-yl)oxy)pyridin-2-yl)carbamoyl)cyclobutanecarboxamide] the IC50 [1] was < 10 nM, the IC50 [2, 7] was 10 to 100 nM and the IC50 [3] was < 10 nM. For the same compound, the IC50 [6, 9] was < 10 nM, the IC50 [4] was < 10 nM and the IC50 [5, 8] was < 10 nM.
In the case of Cn1cc(-c2cc(Oc3ccc(NC(=O)NC(=O)C(C)(C)C)nc3)ccn2)cn1 [Example 26, N-((5-((2-(1-methyl-1H-pyrazol-4-yl)pyridin-4-yl)oxy)pyridin-2-yl)carbamoyl)pivalamide], the IC50 [1] is reported as < 10 nM, the IC50 [2, 7] is reported as 100 to 1000 nM and the IC50 [3] is reported as 10 to 100 nM. For the same compound, the IC50 [6, 9] was 100 to 1000 nM, the IC50 [4] was < 10 nM and the IC50 [5, 8] was < 10 nM.
For Cn1cc(-c2cc(Oc3ccc(NC(=O)NC(=O)C4CC5(CCC5)C4)nc3)ccn2)cn1 [Example 31, N-((5-((2-(1-methyl-1H-pyrazol-4-yl)pyridin-4-yl)oxy)pyridin-2-yl)carbamoyl)spiro[3.3]heptane-2-carboxamide], the IC50 [1] was < 10 nM, the IC50 [2, 7] was < 10 nM and the IC50 [3] was 10 to 100 nM. For the same compound, the IC50 [6, 9] was < 10 nM, the IC50 [4] was < 10 nM and the IC50 [5, 8] was < 10 nM.
With Cc1nc(NC(=O)NC(=O)C2CC3(CCC3)C2)ccc1Oc1ccnc(-c2cnn(C)c2)c1 [Example 32, N-((6-methyl-5-((2-(1-methyl-1H-pyrazol-4-yl)pyridin-4-yl)oxy)pyridin-2-yl)carbamoyl)spiro[3.3]heptane-2-carboxamide] the IC50 [1] was 10 to 100 nM, the IC50 [2, 7] was 10 to 100 nM and the IC50 [3] was < 10 nM. The IC50 [6, 9] was < 10 nM, the IC50 [4] was < 10 nM and the IC50 [5, 8] was < 10 nM.
Cn1cc(-c2cc(Oc3ccc(NC(=O)NC(=O)C4(C(F)(F)F)CC4)nc3)ccn2)cn1 [Example 33, N-((5-((2-(1-methyl-1H-pyrazol-4-yl)pyridin-4-yl)oxy)pyridin-2-yl)carbamoyl)-1-(trifluoromethyl)cyclopropanecarboxamide] gave an IC50 [1] of 10 to 100 nM, an IC50 [2, 7] of 10 to 100 nM and an IC50 [3] of 10 to 100 nM. For the same compound, the IC50 [6, 9] was 100 to 1000 nM, the IC50 [4] was < 10 nM and the IC50 [5, 8] was < 10 nM.
In the case of Cc1nc(NC(=O)NC(=O)C2(C(F)(F)F)CC2)ccc1Oc1ccnc(-c2cnn(C)c2)c1 [Example 34, N-((6-methyl-5-((2-(1-methyl-1H-pyrazol-4-yl)pyridin-4-yl)oxy)pyridin-2-yl)carbamoyl)-1-(trifluoromethyl)cyclopropanecarboxamide], the IC50 [1] is reported as 10 to 100 nM, the IC50 [2, 7] is reported as 100 to 1000 nM and the IC50 [3] is reported as 10 to 100 nM. The IC50 [6, 9] was 100 to 1000 nM, the IC50 [4] was < 10 nM and the IC50 [5, 8] was < 10 nM.
Work on Cn1cc(-c2cc(Oc3ccc(NC(=O)NC(=O)C(C)(C)C(F)(F)F)nc3)ccn2)cn1 [Example 35, 3,3,3-trifluoro-2,2-dimethyl-N-((5-((2-(1-methyl-1H-pyrazol-4-yl)pyridin-4-yl)oxy)pyridin-2-yl)carbamoyl)propanamide] yielded an IC50 [1] of 10 to 100 nM, an IC50 [2, 7] of 10 to 100 nM and an IC50 [3] of 10 to 100 nM. For the same compound, the IC50 [6, 9] was 100 to 1000 nM, the IC50 [4] was 10 to 100 nM and the IC50 [5, 8] was < 10 nM.
Cc1ccc(-c2cc(Oc3ccc(NC(=O)NC(=O)C(C)(C)C)nc3C)ccn2)cn1 [Example 39, N-((6-methyl-5-((6′-methyl-[2,3′-bipyridin]-4-yl)oxy)pyridin-2-yl)carbamoyl)pivalamide] was tested, and the IC50 [3] was 10 to 100 nM and the IC50 [4] was 10 to 100 nM.
Cc1nc(NC(=O)NC(=O)CC(C)(C)C(F)(F)F)ccc1Oc1ccnc(-c2cnn(C)c2)c1 [Example 47, 4,4,4-trifluoro-3,3-dimethyl-N-((6-methyl-5-((2-(1-methyl-1H-pyrazol-4-yl)pyridin-4-yl)oxy)pyridin-2-yl)carbamoyl)butanamide] gave an IC50 [3] of 10 to 100 nM and an IC50 [4] of 10 to 100 nM.
In the case of Cn1cc(-c2cc(Oc3ccc(NC(=O)NC(=O)CC(C)(C)C(F)(F)F)nc3)ccn2)cn1 [Example 48, 4,4,4-trifluoro-3,3-dimethyl-N-((5-((2-(1-methyl-1H-pyrazol-4-yl)pyridin-4-yl)oxy)pyridin-2-yl)carbamoyl)butanamide], the IC50 [1] is reported as 10 to 100 nM, the IC50 [3] is reported as < 10 nM and the IC50 [6, 9] is reported as < 10 nM. For the same compound, the IC50 [4] was 10 to 100 nM and the IC50 [5, 8] was < 10 nM.
With Cn1cc(-c2cc(Oc3ccc(NC(=O)NC(=O)C4(C)CC4)nc3)ccn2)cn1 [Example 52, 1-methyl-N-((5-((2-(1-methyl-1H-pyrazol-4-yl)pyridin-4-yl)oxy)pyridin-2-yl)carbamoyl)cyclopropanecarboxamide] the IC50 [2, 7] was > 1000 nM, the IC50 [3] was < 10 nM and the IC50 [6, 9] was 100 to 1000 nM. The IC50 [4] was < 10 nM.
In the case of COC(C)(C)C(=O)NC(=O)Nc1ccc(Oc2ccnc(-c3cnn(C)c3)c2)cn1 [Example 55, 2-methoxy-2-methyl-N-((5-((2-(1-methyl-1H-pyrazol-4-yl)pyridin-4-yl)oxy)pyridin-2-yl)carbamoyl)propanamide], the IC50 [3] is reported as 10 to 100 nM and the IC50 [4] is reported as < 10 nM.
With Cc1cc(-c2cc(Oc3ccc(NC(=O)NC(=O)C(C)(C)C)nc3C)ccn2)ccn1 [Example 56, N-((6-methyl-5-((2′-methyl-[2,4′-bipyridin]-4-yl)oxy)pyridin-2-yl)carbamoyl)pivalamide] the IC50 ([2]; IC50 (nM) uPDGFRβ, Table 3) was 2800 nM, the IC50 [2, 7] was > 1000 nM and the IC50 [3] was < 10 nM. For the same compound, the IC50 ([6]; IC50 (nM) uKIT, Table 3) was 3100 nM, the IC50 [6, 9] was > 1000 nM and the IC50 [4] was 10 to 100 nM.
With Cc1cc(-c2cc(Oc3ccc(NC(=O)NC(=O)C(C)(C)C)nc3C)ccn2)on1 [Example 76, N-((6-methyl-5-((2-(3-methylisoxazol-5-yl)pyridin-4-yl)oxy)pyridin-2-yl)carbamoyl)pivalamide] the IC50 [2, 7] was > 1000 nM, the IC50 [3] was < 10 nM and the IC50 [6, 9] was > 1000 nM. For the same compound, the IC50 [4] was 10 to 100 nM.
Cc1cc(-c2cc(Oc3ccc(NC(=O)NC(=O)C(C)C)nc3C)ccn2)ccn1 [Example 79, N-((6-methyl-5-((2′-methyl-[2,4′-bipyridin]-4-yl)oxy)pyridin-2-yl)carbamoyl)isobutyramide] was tested, and the IC50 [3] was < 10 nM and the IC50 [4] was < 10 nM.
COC1(C(=O)NC(=O)Nc2ccc(Oc3ccnc(-c4ccnc(C)c4)c3)cn2)CCCC1 [Example 168, 1-methoxy-N-((5-((2′-methyl-[2,4′-bipyridin]-4-yl)oxy)pyridin-2-yl)carbamoyl)cyclopentanecarboxamide] gave an IC50 [1] of 10 to 100 nM, an IC50 [2, 7] of 100 to 1000 nM and an IC50 [6, 9] of 100 to 1000 nM. The IC50 [4] was 10 to 100 nM and the IC50 [5, 8] was < 10 nM.

Source: patent publication US9382228B2 (priority 2013, dated 2016)
